Measured values as given in patent US12612424B2, “HPK1 inhibitors and uses thereof” (Regor Pharmaceuticals, Inc., priority 2019, dated 2026).
pEC50: −log10 of the molar value.

Tested on: Human Pan T Cell (IL-2 release)
Assay: IL2 released by human pan T cell upon anti-CD3/anti-CD28 stimulation (ELISA)
Assay type: cell-based
Conditions: human pan T cells; for EC (2-fold response) / maximal fold induction: 48 h; for EC (2-fold response) / EC2x (nM): concentration of compound that gives 200% IL-2 response (2 folds) over DMSO control; for maximal fold induction / IL-2 Max Fold Response: response of IL-2 over DMSO control, anti-CD3/anti-CD28, 48 hours, ELISA; for maximal fold induction: read-out: IL-2 Max Fold Response; for pEC50: IL-2 response, calculated with GraphPad Prism
From the text: For example, Example 5 describes such a functional assay for determining the effect of an HPK1 inhibitor on IL-2 & IFN-γ release upon stimulation of Pan T cells. The secreted IL-2 & IFN-γ can be measured/quantified by standard ELISA assay. Briefly, pan T cells can be isolated from peripheral blood (PB) mononuclear cells (MNCs), or PBMC, using commercially available kits, such as MACS (Miltenyl Biotec) Pan T isolation kit (Cat. No. 130-096-535). Primary human pan-T cells include CD4 and CD8 T cells as well as some gamma/delta T cell subsets. The pan-T cells can be isolated using the negative immunomagnetic separation technique without the use of columns.
Isolated pan-T cells can be dispensed into 96-well plates at 100,000 cells/well, and stimulated with immobilized anti-CD3 antibody and soluable anti-CD28 antibody, or PMA/Ionomycin as the positive control (or culture media as the negative control). Different concentrations of test compounds can be added to the cells to assess the compound effect on cytokine secretion following TCR-stimulation/CD28 co-stimulation. Stimulated cells are incubated for 2 more days, before the supernatant (containing secreted cytokines by pan-T cells) is collected from each well for ELISA assay and quantitation of IL-2 and IFN-γ.
Biology Example 8 Compound Efficacy Study on IL2 & IFN-γ Released by Human Pan T Cell
This example is an assay method that can be used to determine compound effects on IL2 & IFN-γ release using pan T cells and ELISA assay format.
3. Procedures Procedures for Pan T isolation and Reagent preparation (Day 0): 1. Cell Growth Medium: • RPMI1640: ATCC, Cat #30-2001 • 10% FBS: Gibco, Cat #10099141 • 1% Pen-Strep: Gibco, Cat #15140122 • 1% Non-essential amino: Gibco, Cat #11140050 • Beta-Mercaptoethanol: Gibco, Cat #21985023 2. Pan T Isolation Buffer Preparation:
Prepare a solution containing phosphate-buffered saline (PBS), pH 7.2, 0.5% bovine serum albumin (BSA), and 2 mM EDTA by diluting MACS® BSA Stock Solution (#130-091-376) 20 times with autoMACS® Rinsing Solution. Keep buffer at 4° C. Degas buffer before use, as air bubbles could block the column.
3. Thawing of Frozen PBMC • 1) Pre-heat medium at 37° C. water bath. • 2) Rapidly thaw cells in 37° C. water bath. • 3) Add the pre-warmed medium into 15 mL tube. Transfer cells to the tube. • 4) 300×g centrifuge for 8 min. (centrifuge increase 0, decrease 0). • 5) Wash the PBMC using Rinsing buffer. • 6) Centrifuge PBMC at 300×g for 8 min, wash it twice (centrifuge increase 9, decrease 1). • 7) Resuspend the cells with Pan T cells isolation buffer and count cells number. 4. Pan T Cells Isolation: Cell Staining with Microbead Cocktail • 1) Prepare cells and determine cell number. Filter cells by 70 μm cell strainer. • 2) Resuspend cell pellet in 40 μL of buffer per 10^7 total cells. • 3) Add 10 μL of Pan T Cell Biotin-Antibody Cocktail per 10^7 total cells. • 4) Mix well and incubate for 10 minutes in the refrigerator (ice). • 5) Add 30 μL of buffer per 10^7 total cells. • 6) Add 20 μL of Pan T Cell MicroBead Cocktail per 10^7 total cells. • 7) Mix well and incubate for 15 minutes in the refrigerator (ice). • 8) Proceed to subsequent magnetic cell separation. • Note: a. Work fast, keep cells cold, and use pre-cooled solutions (2-8° C.). b. Volumes for magnetic labeling given are for up to 10′ total cells. When working with fewer cells, use the same volumes as indicated. c. When working with higher cell numbers, scale up all reagent volumes and total volumes accordingly. d. For optimal performance it is important to obtain a single-cell suspension before magnetic labeling. Subsequent Manual Cell Separation: • 1) Place LS Column in the magnetic field of a suitable MACS Separator. For details refer to the respective MACS Column data sheet. • 2) Prepare column by rinsing with 3 mL of buffer. • 3) Apply cell suspension onto the column. Collect flow-through, which represents the enriched T cells. • 4) Wash column with 5 mL of buffer. […]

Row | SMILES | EC (2-fold response) (Homo sapiens, T-cell) [µM] | maximal fold induction (Homo sapiens, T-cell) | pEC50 (Homo sapiens, T-cell) | pEC50 | IL-2 Max Fold Response | EC2x (nM)
1 | COc1cc2c(cc1Nc1ncc(Cl)c(N3CC(C(=O)O)c4ccccc43)n1)CN(C)CC2 (single isomer, unassigned) [Example 96] | 0.1 to 0.5 | > 2 | 6.30 to 7.00 | – | – | –
2 | COc1cc2c(cc1Nc1ncc(Cl)c(N3C[C@](C)(C(=O)O)c4ccccc43)n1)CN(C)CC2 (single isomer, unassigned) [Example 118] | – | < 2 | < 6.00 | – | – | –
3 | COc1cc2c(cc1Nc1ncc(Cl)c(N3C[C@@](C)(C(=O)O)c4ccccc43)n1)CN(C)CC2 (single isomer, unassigned) [Example 119] | ≤ 0.1 | > 2 | ≥ 7.00 | – | – | –
4 | COc1cc2c(cc1Nc1ncc(Cl)c(N3CC(C)(CC(=O)O)c4ccccc43)n1)CN(C)CC2 (single isomer, unassigned) [Example 147] | – | < 2 | – | 6.00 to 6.30 | – | –
5 | COc1cc2c(cc1Nc1ncc(Cl)c(N3CC(C)(CC(=O)O)c4ccccc43)n1)CN(C)CC2 (single isomer, unassigned) [Example 148] | ≤ 0.1 | – | – | ≥ 7.00 | >2 | –
6 | COc1cc2c(cc1Nc1ncc(Cl)c(N3CC(C)(CC(=O)O)c4ccc(F)cc43)n1)CN(C)CC2 (single isomer, unassigned) [Example 152] | ≤ 0.1 | > 2 | ≥ 7.00 | – | – | –
7 | COc1cc2c(cc1Nc1ncc(Cl)c(N3CC(C)(CC(=O)O)c4ccc(F)cc43)n1)CN(C)CC2 (single isomer, unassigned) [Example 153] | – | – | – | 6.30 to 7.00 | >2 | +++ (“+++”, for higher values than “++++” but less than or equal to 500 nM)
8 | COc1cc2c(cc1Nc1ncc(Cl)c(-n3ccc4ccccc43)n1)CN(C)CC2 [Example 2, N-(5-chloro-4-(1H-indol-1-yl)pyrimidin-2-yl)-6-methoxy-2-methyl-1,2,3,4-tetrahydroisoquinolin-7-amine] | – | < 2 | – | – | – | –
9 | COc1cc2c(cc1Nc1ncc(Cl)c(N3CCc4ccccc43)n1)CN(C)CC2 [Example 4, N-(5-Chloro-4-(indolin-1-yl)pyrimidin-2-yl)-6-methoxy-2-methyl-1,2,3,4-tetrahydroisoquinolin-7-amine] | 0.1 to 0.5 | > 2 | 6.30 to 7.00 | – | – | –
10 | COc1cc2c(cc1Nc1ncc(Cl)c(-n3cc(C(=O)N(C)C)c4ccccc43)n1)CN(C)CC2 [Example 8] | – | < 2 | – | – | – | –
11 | COc1cc2c(cc1Nc1ncc(Cl)c(-n3cnc4ccccc43)n1)CN(C)CC2 [Example 9, N-(4-(1H-benzo[d]imidazol-1-yl)-5-chloropyrimidin-2-yl)-6-methoxy-2-methyl-1,2,3,4-tetrahydroisoquinolin-7-amine] | – | > 2 | 6.30 to 7.00 | – | – | ++ (“++”, for higher values than “+++” but less than or equal to 1 μM)
12 | COc1cc2c(cc1Nc1ncc(C(F)(F)F)c(-n3ccc4ccccc43)n1)CN(C)CC2 [Example 10, N-(4-(1H-indol-1-yl)-5-(trifluoromethyl)pyrimidin-2-yl)-6-methoxy-2-methyl-1,2,3,4-tetrahydroisoquinolin-7-amine] | – | < 2 | – | – | – | –
13 | COc1cc2c(cc1Nc1ncc(Cl)c(N3CCc4cc(Cl)ccc43)n1)CN(C)CC2 [Example 13, N-(5-chloro-4-(5-chloroindolin-1-yl)pyrimidin-2-yl)-6-methoxy-2-methyl-1,2,3,4-tetrahydroisoquinolin-7-amine] | – | < 2 | < 6.00 | – | – | –
14 | CN1CCc2ccc(Nc3ncc(Cl)c(N4CCc5ccccc54)n3)cc2C1 [Example 14, N-(5-Chloro-4-(indolin-1-yl)pyrimidin-2-yl)-2-methyl-1,2,3,4-tetrahydroisoquinolin-7-amine] | – | < 2 | – | – | – | –
15 | CN1CCc2cc(Cl)c(Nc3ncc(Cl)c(N4CCc5ccccc54)n3)cc2C1 [Example 15, 6-Chloro-N-(5-chloro-4-(indolin-1-yl)pyrimidin-2-yl)-2-methyl-1,2,3,4-tetrahydroisoquinolin-7-amine] | – | > 2 | < 6.00 | – | – | + (“+”, for greater than 1 μM)
16 | COc1cc2c(cc1Nc1ncc(Cl)c(N3CCc4ncccc43)n1)CN(C)CC2 [Example 16, N-(5-chloro-4-(2,3-dihydro-1H-pyrrolo[3,2-b]pyridin-1-yl)pyrimidin-2-yl)-6-methoxy-2-methyl-1,2,3,4-tetrahydroisoquinolin-7-amine] | – | < 2 | 6.30 to 7.00 | – | – | –
17 | COc1cc2c(cc1Nc1ncc(Cl)c(N3CCc4ccc(Cl)cc43)n1)CN(C)CC2 [Example 18, N-(5-chloro-4-(6-chloroindolin-1-yl)pyrimidin-2-yl)-6-methoxy-2-methyl-1,2,3,4-tetrahydroisoquinolin-7-amine] | – | < 2 | 6.30 to 7.00 | – | – | –
18 | COc1cc2c(cc1Nc1ncc(Cl)c(N3CC(S(C)(=O)=O)c4ccccc43)n1)CN(C)CC2 (stereo not drawn) [Example 81, N-(5-chloro-4-(3-(methylsulfonyl)indolin-1-yl)pyrimidin-2-yl)-6-methoxy-2-methyl-1,2,3,4-tetrahydroisoquinolin-7-amine] | 0.1 to 0.5 | > 2 | 6.00 to 6.30 | – | – | –
19 | COc1cc2c(cc1Nc1ncc(Cl)c(-n3cc(S(N)(=O)=O)c4ccccc43)n1)CN(C)CC2 [Example 83, 1-(5-Chloro-2-((6-methoxy-2-methyl-1,2,3,4-tetrahydroisoquinolin-7-yl)amino)pyrimidin-4-yl)-1H-indole-3-sulfonamide] | – | < 2 | 6.30 to 7.00 | – | – | –
20 | COc1cc2c(cc1Nc1ncc(Cl)c(N3CC4(CC4)c4ccccc43)n1)CN(C)CC2 [Example 84, N-(5-chloro-4-(spiro[cyclopropane-1,3′-indolin]-1′-yl)pyrimidin-2-yl)-6-methoxy-2-methyl-1,2,3,4-tetrahydroisoquinolin-7-amine] | – | < 2 | 6.00 to 6.30 | – | – | –
21 | COc1cc2c(cc1Nc1ncc(Cl)c(N3CCc4cc(P(C)(C)=O)ccc43)n1)CN(C)CC2 [Example 86] | – | > 2 | 6.30 to 7.00 | – | – | + (“+”, for greater than 1 μM)
22 | COc1cc2c(cc1Nc1ncc(Cl)c(N3CC(CO)c4ccccc43)n1)CN(C)CC2 (stereo not drawn) [Example 87] | – | < 2 | 6.30 to 7.00 | – | – | –
23 | COc1cc2c(cc1Nc1ncc(Cl)c(N3CC(P(C)(C)=O)c4ccccc43)n1)CN(C)CC2 (stereo not drawn) [Example 88] | – | < 2 | 6.00 to 6.30 | – | – | –
24 | COc1cc2c(cc1Nc1ncc(Cl)c(N3CCc4cc(C(F)F)ccc43)n1)CN(C)CC2 [Example 90, N-(5-chloro-4-(5-(difluoromethyl)indolin-1-yl)pyrimidin-2-yl)-6-methoxy-2-methyl-1,2,3,4-tetrahydroisoquinolin-7-amine] | – | < 2 | < 6.00 | – | – | –
